Measured values as given in patent US5061794A, “Cephalosporin derivatives, and antibacterial agents” (priority 1986, dated 1991).
Values after ≈ are worked out from the molar mass of the structure shown. Like-named read-outs stand apart in the source and are kept apart here.

Experiments:
[1] = test system: Ps. aeruginosa IF03445; test: in vitro antibacterial activity, agar plate dilution method (MIC); assay type: cell-based, Pseudomonas aeruginosa; settings: Pseudomonas aeruginosa, 10^6 CFU/ml
Protocol: (§1) The in vitro antibacterial activities of the compounds of the present invention against various microorganisms, were measured by the following agar plate dilution method. One platinum loopfull of each test microorganism incubated overnight in Mueller Hinton broth, was inoculated to Mueller Hinton agar (inoculum size: 10^6 CFU/ml). Such culture media containing various antibiotics in various concentrations were prepared. After incubation at 37° C. for 16 hours, the minimum inhibitory concentrations (MIC: μg/ml) were measured.

[2] = test system: Ps. aeruginosa AKR17; test: as above; assay type: cell-based, Pseudomonas aeruginosa; settings: Pseudomonas aeruginosa, 10^6 CFU/ml
Protocol: as §1

[3] = test system: Ps. aeruginosa AK 109; test: as above; assay type: cell-based, Pseudomonas aeruginosa; settings: Pseudomonas aeruginosa, AK109, 16 h
Protocol: as §1

[4] = test system: E. cloacae 963; test: as above; assay type: cell-based; settings: 10^6 CFU/ml
Protocol: as §1

[5] = test system: K. pneumoniae No. 42; test: as above; assay type: cell-based; settings: Klebsiella pneumoniae, NO.42, 16 h, read-out: Minimum Inhibitory Concentration (MIC), *K. pneumoniae No. 42, lactamase-producing strain; 10^6 CFU/ml
Protocol: as §1

[6] = test system: S. marcescens No. 16-2; test: as above; assay type: cell-based; settings: Serratia marcescens, NO.162, 16 h
Protocol: as §1

[7] = test system: K. pneumoniae PCI-602; test: as above; assay type: cell-based; settings: Klebsiella pneumoniae, PCI602, 16 h, 10^6 CFU/ml
Protocol: as §1

[8] = test system: P. vulgaris No. 33; test: as above; assay type: cell-based; settings: Proteus vulgaris, NO.33, 16 h, read-out: Minimum Inhibitory Concentration (MIC), *P. vulgaris No. 33, lactamase-producing strain; 10^6 CFU/ml
Protocol: as §1

[9] = test system: E. coli GN5482; test: as above; assay type: cell-based; settings: Escherichia coli, GN5482, 16 h
Protocol: as §1

[10] = test system: E. cloacae Nek 39; test: as above; assay type: cell-based; settings: Enterobacter cloacae, NEK39, 16 h, read-out: Minimum Inhibitory Concentration (MIC), *E. cloacae Nek 39, lactamase-producing strain; 10^6 CFU/ml
Protocol: as §1

[11] = test system: K. oxytoca GN10650; test: as above; assay type: cell-based; settings: Klebsiella oxytoca, 10^6 CFU/ml
Protocol: as §1

[12] = test system: P. vulgaris HX-19; test: as above; assay type: cell-based; settings: Proteus vulgaris, HX19, 16 h, read-out: Minimum Inhibitory Concentration (MIC)
Protocol: as §1

[13] = test system: S. marcescens IAM 1184; test: as above; assay type: cell-based; settings: Serratia marcescens, IAM1184, 16 h, S. marcescens IAM 1184; 10^6 CFU/ml; read-out: Minimum Inhibitory Concentration (MIC)
Protocol: as §1

[14] = test system: E. coli NIHJ JC2; test: as above; assay type: cell-based; settings: Escherichia coli, NIHJJC2, 16 h, read-out: Minimum Inhibitory Concentration (MIC), E. coli NIHJ JC2, 10^6 CFU/ml, 37° C.
Protocol: as §1

[15] = test system: S. aureus 209P NIHJ-JC1; test: as above; assay type: cell-based; settings: Staphylococcus aureus, 16 h
Protocol: as §1

[16] = test system: Ps. cepacia 23; test: as above; assay type: cell-based, Pseudomonas cepacia; settings: Burkholderia cepacia, 16 h; Ps. cepacia 23; 10^6 CFU/ml; read-out: Minimum Inhibitory Concentration (MIC)
Protocol: as §1

[17] = test system: A. calcoaceticus No. 4; test: as above; assay type: cell-based, Acinetobacter calcoaceticus; settings: Acinetobacter calcoaceticus, NO.4, 16 h, 10^6 CFU/ml
Protocol: as §1

[18] = test system: E. coli CSH(RE45); test: microbe, parasite or virus in culture; assay type: cell-based; settings: Escherichia coli, 16 h, read-out: Minimum Inhibitory Concentration (MIC), *E. coli CSH(RE45), lactamase-producing strain; 10^6 CFU/ml
Protocol: as §1

[19] = test system: E. coli CSH2 (RK1); test: microbe, parasite or virus in culture; assay type: cell-based; settings: Escherichia coli, 16 h, read-out: Minimum Inhibitory Concentration (MIC), *E. coli CSH2 (RK1), lactamase-producing strain; 10^6 CFU/ml
Protocol: as §1

[20] = IF03445, 16 h, read-out: Minimum Inhibitory Concentration (MIC), Ps. aeruginosa IF03445
[21] = 16 h, Ps. aeruginosa AKR17, read-out: Minimum Inhibitory Concentration (MIC)
[22] = read-out: Minimum Inhibitory Concentration (MIC)
[23] = Enterobacter cloacae, 16 h, E. cloacae 963, read-out: Minimum Inhibitory Concentration (MIC)
[24] = read-out: Minimum Inhibitory Concentration (MIC), *S. marcescens No. 16-2, lactamase-producing strain, 10^6 CFU/ml
[25] = read-out: Minimum Inhibitory Concentration (MIC), K. pneumoniae PCI-602
[26] = read-out: Minimum Inhibitory Concentration (MIC), *E. coli GN5482, lactamase-producing strain, 10^6 CFU/ml
[27] = GN10650, 16 h, read-out: Minimum Inhibitory Concentration (MIC), *K. oxytoca GN10650, lactamase-producing strain
[28] = A. calcoaceticus No. 4, read-out: Minimum Inhibitory Concentration (MIC)
[29] = read-out: Minimum Inhibitory Concentration (MIC), Ps. aeruginosa AK 109, 10^6 CFU/ml
[30] = 16 h, *K. oxytoca GN10650, lactamase-producing strain, read-out: Minimum Inhibitory Concentration (MIC)
[31] = read-out: Minimum Inhibitory Concentration (MIC), A. calcoaceticus No. 4

Row | Compound | MIC [1, 20] [µg/mL] | MIC [2, 21] [µg/mL] | MIC [4, 23] [µg/mL] | MIC [5] [µg/mL] | MIC [6, 24] [µg/mL] | MIC [7, 25] [µg/mL] | MIC [8] [µg/mL] | MIC [9, 26] [µg/mL] | MIC [10] [µg/mL] | MIC [11, 27] [µg/mL] | MIC ([12]; P. vulgaris HX-19, 10^6 CFU/ml) [µg/mL] | MIC [13] [µg/mL] | MIC [14] [µg/mL] | MIC [15, 22] [µg/mL] | MIC [16] [µg/mL] | MIC [18] [µg/mL] | MIC [19] [µg/mL] | MIC [3, 29] [µg/mL] | MIC [9, 22] [µg/mL] | MIC [17, 31] [µg/mL] | other results
1 | Nc1nc(C(=NOC2CCCC2)C(=O)NC2C(=O)N3C(C(=O)O)=C(CSc4nc(C(=O)O)c(-c5ccc(O)c(O)c5)s4)CSC23)cs1 (centres unmarked) [Ex. 54, disodium 78-[2-(2-aminothiazol-4-yl)-2-cyclopentyloxyiminoacetamido]-3-[4-carboxylate-5-(3,4-dihydroxyphenyl)thiazol-2-yl]thiomethyl-3-cephem-4-carboxylate] | 1.56 | > 100 | 0.1 | 0.1 | 1.56 | < 0.006 | 0.025 | 1.56 | 0.2 | 1.56 | < 0.006 | 0.05 | 1.56 | 3.12 | < 0.006 | 3.12 | 0.1 | – | – | – | MIC [3, 22]: 12.5 µg/mL; MIC [17, 28]: 0.2 µg/mL
2 | C=CCON=C(C(=O)NC1C(=O)N2C(C(=O)O)=C(CSc3nc(C(=O)O)c(-c4ccc(O)c(O)c4)s3)CSC12)c1csc(N)n1 (centres unmarked) [Ex. 55, disodium 78-[2-allyloxyimino-2-(2-aminothiazol-4-yl)acetamido]-3-[4-carboxylate-5-(3,4-dihydroxyphenyl)thiazol-2-yl]thiomethyl-3-cephem-4-carboxylate] | 3.12 | > 100 | 0.1 | 0.1 | – | < 0.006 | 0.025 | – | 0.39 | – | < 0.006 | 0.1 | 0.78 | – | 0.025 | 0.1 | 0.0125 | 6.25 | 3.12 | 0.1 | MIC [6, 22]: 3.12 µg/mL; MIC [11, 30]: 50 µg/mL; MIC ([15]; read-out: Minimum Inhibitory Concentration (MIC), S. aureus 209P NIHJ-JC1, 10^6 CFU/ml, 37° C., 16 hours): 6.25 µg/mL
3 | Nc1nc(C(=NOCc2ccccc2)C(=O)NC2C(=O)N3C(C(=O)O)=C(CSc4nc(C(=O)O)c(-c5ccc(O)c(O)c5)s4)CSC23)cs1 (centres unmarked) [Ex. 57] | 3.12 (≈ 4.21 µM) | > 100 | – | 0.1 (≈ 0.135 µM) | 6.25 (≈ 8.44 µM) | < 0.006 | 0.025 (≈ 0.0337 µM) | – | 0.39 (≈ 0.526 µM) | – | < 0.006 | 0.1 (≈ 0.135 µM) | 0.78 (≈ 1.05 µM) | 3.12 (≈ 4.21 µM) | < 0.006 | 0.1 (≈ 0.135 µM) | 0.0125 (≈ 0.0169 µM) | 6.25 (≈ 8.44 µM) | 3.12 (≈ 4.21 µM) | 0.39 (≈ 0.526 µM) | MIC ([4]; Enterobacter cloacae, 963, 16 h, read-out: Minimum Inhibitory Concentration (MIC), E. cloacae 963): 0.05 µg/mL (≈ 0.0675 µM); MIC [11, 30]: 25 µg/mL (≈ 33.7 µM)
4 | CC(=O)Oc1ccc(-c2nc(SCC3=C(C(=O)O)N4C(=O)C(NC(=O)C(=NOC(C)(C)C(=O)O)c5csc(N)n5)C4SC3)sc2CC(=O)O)cc1OC(C)=O (stereo not drawn) [Example 59 (II), trisodium 7β-[2-(2-aminothiazol-4-yl)-2-(1-carboxylate-1-methylethoxyimino)acetamido]-3-[4-(3,4-diacetoxyphenyl)-5-carboxylatemethylthiazol-2-yl]-thiomethyl-3-cephem-4-carboxylate] | 1.56 | – | 0.2 | 0.2 | 0.78 | – | 0.05 | 1.56 | 0.2 | 0.2 | 0.025 | 0.2 | 3.12 | – | < 0.006 | 0.05 | 0.025 | 1.56 | – | – | MIC ([2]; AKR17, 16 h, read-out: Minimum Inhibitory Concentration (MIC), Ps. aeruginosa AKR17): 1.56 µg/mL; MIC ([7]; K. pneumoniae PCI-602, read-out: Minimum Inhibitory Concentration (MIC)): 0.025 µg/mL; MIC ([15]; S. aureus 209P NIHJ-JC1, 10^6 CFU/ml, 37° C., 16 hours, read-out: Minimum Inhibitory Concentration (MIC)): 50 µg/mL; MIC [17, 28]: 0.2 µg/mL
5 | CON=C(C(=O)NC1C(=O)N2C(C(=O)O)=C(CSc3nc(-c4ccc(O)c(O)c4)c(CC(=O)O)s3)CSC12)c1csc(N)n1 (stereo not drawn) [compound 58, disodium 7β-[2-(2-aminothiazol-4-yl)-2-methoxyiminoacetamido]-3-[4-(3,4-dihydroxyphenyl)-5-carboxylatemethylthiazol-2-yl]thiomethyl-3-cephem-4-carboxylate] | – | > 100 | 0.1 | 0.1 | – | < 0.006 | 0.025 | – | 1.56 | 12.5 | – | 0.1 | 0.39 | 12.5 | 0.025 | 0.39 | 0.0125 | – | 3.12 | 0.39 | MIC ([1]; 16 h, Ps. aeruginosa IF03445, read-out: Minimum Inhibitory Concentration (MIC)): 25 µg/mL; MIC ([3]; Ps. aeruginosa AK 109, 10^6 CFU/ml, read-out: Minimum Inhibitory Concentration (MIC)): > 100 µg/mL; MIC [6, 22]: 3.12 µg/mL; MIC [12]: 0.0125 µg/mL
